# Test results taken from paper PMC9694777, “Fractionation and Extraction Optimization of Potentially Valuable Compounds and Their Profiling in Six Varieties of Two Nicotiana Species” (Molecules, 2022).
# Assay: Rapid solubility test of pure reference compounds in 7 solvents
# From the text: Determination of the small molecule content in a complex plant matrix depends on the understanding of minimum solubility in the chosen extraction solvent. […] Often, tests on mixture are hardly reproducible on pure compounds if this aspect is not routinely considered in the workflow. We performed a general testing of best solvent systems to compare a wide range of small molecules of interest to understand the limitations of general approaches within a complex plant matrix such as Nicotiana.
# For each of the 29 reference compounds, 2 mg was weighed into a 15 mL glass tube and dissolved in the minimum amount of the test solvent by gradually adding the solvent with a micropipette until complete dissolution or to a final volume of 10.0 mL. Seven solvents with polarities from nonpolar to polar were chosen for the test: hexane (C6H14), CH2Cl2, CH2Cl2/MeOH (4:1, v/v), EtOH, MeOH, MeOH/H2O (7:3, v/v), and H2O. The consumed solvents and their volumes were recorded for each reference compound.
# [1] = CH2Cl2/MeOH (4:1, v/v), 22 °C, organic solvent or mixture, thermodynamic from solid, Solubility in CH2Cl2/MeOH (4:1), solvent CH2Cl2/MeOH (4:1, v/v); room temperature (21–23 °C)
# [2] = MeOH/H2O (7:3, v/v), 22 °C, organic solvent or mixture, thermodynamic from solid, Solubility in MeOH/H2O (7:3), solvent MeOH/H2O (7:3, v/v); room temperature (21–23 °C)
# [3] = dichloromethane (CH2Cl2), 22 °C, organic solvent or mixture, thermodynamic from solid, Solubility in CH2Cl2, solvent dichloromethane (CH2Cl2); room temperature (21–23 °C)
# [4] = ethanol, 22 °C, organic solvent or mixture, thermodynamic from solid, Solubility in EtOH, solvent ethanol; room temperature (21–23 °C)
# [5] = hexane (C6H14), 22 °C, organic solvent or mixture, thermodynamic from solid, Solubility in C6H14, solvent hexane (C6H14); room temperature (21–23 °C); 2 mg compound, solvent added until dissolution or 10.0 mL
# [6] = methanol, 22 °C, organic solvent or mixture, thermodynamic from solid, Solubility in MeOH, solvent methanol; room temperature (21–23 °C)
# [7] = water, 22 °C, thermodynamic from solid, Solubility in H2O, solvent water; room temperature (21–23 °C)
# [8] = 22 °C, organic solvent or mixture, thermodynamic from solid, Solubility in C6H14, solvent hexane (C6H14); room temperature (21–23 °C); 2 mg compound, solvent added until dissolution or 10.0 mL
# [9] = 22 °C, organic solvent or mixture, thermodynamic from solid, Solubility in CH2Cl2, solvent dichloromethane (CH2Cl2); room temperature (21–23 °C)
# [10] = 22 °C, organic solvent or mixture, thermodynamic from solid, Solubility in CH2Cl2/MeOH (4:1), solvent CH2Cl2/MeOH (4:1, v/v); room temperature (21–23 °C)
# [11] = 22 °C, organic solvent or mixture, thermodynamic from solid, Solubility in EtOH, solvent ethanol; room temperature (21–23 °C)
# [12] = 22 °C, organic solvent or mixture, thermodynamic from solid, Solubility in MeOH, solvent methanol; room temperature (21–23 °C)
# [13] = 22 °C, organic solvent or mixture, thermodynamic from solid, Solubility in MeOH/H2O (7:3), solvent MeOH/H2O (7:3, v/v); room temperature (21–23 °C)
# [14] = 22 °C, water, thermodynamic from solid, Solubility in H2O, solvent water; room temperature (21–23 °C)
# [15] = solvent CH2Cl2/MeOH (4:1, v/v); room temperature (21–23 °C)
# [16] = 22 °C, organic solvent or mixture, thermodynamic from solid, Solubility in C6H14
# [17] = 22 °C, organic solvent or mixture, thermodynamic from solid, Solubility in CH2Cl2
# [18] = 22 °C, organic solvent or mixture, thermodynamic from solid, Solubility in EtOH
# [19] = 22 °C, organic solvent or mixture, thermodynamic from solid, Solubility in MeOH/H2O (7:3)
# [20] = 22 °C, organic solvent or mixture, thermodynamic from solid, Solubility in CH2Cl2/MeOH (4:1)
# [21] = 22 °C, organic solvent or mixture, thermodynamic from solid, Solubility in MeOH
# [22] = 22 °C, water, thermodynamic from solid, Solubility in H2O
structure (smiles),measurement,setting,value
CC(C)=CCC/C(C)=C/CC/C(C)=C/CO [Farnesol],solubility,[1],348 mg/mL
same,solubility,[2],0.75 mg/mL
same,solubility,[3],382 mg/mL
same,solubility,[4],376 mg/mL
same,solubility,[5],400 mg/mL
same,solubility,[6],466 mg/mL
same,solubility,[7],< 0.19 mg/mL
C1=CCC(c2cccnc2)NC1 (stereo not shown) [Anatabine],solubility,[8],217 mg/mL
same,solubility,[9],442 mg/mL
same,solubility,[10],512 mg/mL
same,solubility,[11],490 mg/mL
same,solubility,[12],444 mg/mL
same,solubility,[13],193 mg/mL
same,solubility,[14],100 mg/mL
CC(C)=CCC/C(C)=C/CC/C(C)=C/CC/C=C(\C)CC/C=C(\C)CCC=C(C)C [Squalene],solubility,[8],446 mg/mL
same,solubility,[9],474 mg/mL
same,solubility,[10],472 mg/mL
same,solubility,[11],5.94 mg/mL
same,solubility,[12],0.22 mg/mL
same,solubility,[13],< 0.19 mg/mL
same,solubility,[14],< 0.19 mg/mL
CC1=C[C@H](O)CC(C)(C)[C@H]1/C=C/C(C)=C/C=C/C(C)=C/C=C/C=C(C)/C=C/C=C(C)/C=C/C1=C(C)C[C@@H](O)CC1(C)C [Lutein],solubility,[8],< 0.19 mg/mL
same,solubility,[9],< 0.19 mg/mL
same,solubility,[11],< 0.19 mg/mL
same,solubility,[12],< 0.19 mg/mL
same,solubility,[13],< 0.19 mg/mL
same,solubility,[14],< 0.19 mg/mL
same,Solubility in CH2Cl2/MeOH (4:1),[15],4.66 mg/mL
same,Solubility in CH2Cl2/MeOH (4:1),"solvent CH2Cl2/MeOH (4:1, v/v); room temperature (21–23 °C); listed as lutein",< 100 mg/mL
CN1C(=O)CC[C@H]1c1cccnc1 [Cotinine],solubility,[16],< 0.19 mg/mL
same,solubility,[1],208 mg/mL
same,solubility,[2],139 mg/mL
same,solubility,[3],203 mg/mL
same,solubility,[4],190 mg/mL
same,solubility,[6],235 mg/mL
same,solubility,[7],145 mg/mL
O=C(O)c1cccnc1 [Nicotinic acid],solubility,[17],< 0.19 mg/mL
same,solubility,[18],3.51 mg/mL
same,solubility,[19],2.85 mg/mL
same,solubility,[5],< 0.19 mg/mL
same,solubility,[6],6.71 mg/mL
same,solubility,[7],3.1 mg/mL
C=CC(C)(O)CCC=C(C)C (stereo not shown) [Linalool],solubility,[1],462 mg/mL
same,solubility,[2],77.3 mg/mL
same,solubility,[3],440 mg/mL
same,solubility,[4],454 mg/mL
same,solubility,[5],422 mg/mL
same,solubility,[6],462 mg/mL
same,solubility,[7],0.57 mg/mL
CC(C)=CCC/C(C)=C/CC/C(C)=C/CC/C(C)=C/CC/C(C)=C/CC/C(C)=C/CC/C(C)=C/CC/C(C)=C/CC/C(C)=C/CO [Solanesol],Solubility in CH2Cl2/MeOH (4:1),[15],203 mg/mL
same,Solubility in MeOH/H2O (7:3),"solvent MeOH/H2O (7:3, v/v); room temperature (21–23 °C)","NS (not soluble, insoluble in the solvent at the tested concentration range (0.19–558 mg/mL))"
same,Solubility in CH2Cl2,solvent dichloromethane (CH2Cl2); room temperature (21–23 °C),235 mg/mL
same,Solubility in EtOH,solvent ethanol; room temperature (21–23 °C),3.31 mg/mL
same,Solubility in C6H14,"solvent hexane (C6H14); room temperature (21–23 °C); 2 mg compound, solvent added until dissolution or 10.0 mL",42.0 mg/mL
same,Solubility in MeOH,solvent methanol; room temperature (21–23 °C),0.51 mg/mL
same,Solubility in H2O,solvent water; room temperature (21–23 °C),"NS (not soluble, insoluble in the solvent at the tested concentration range (0.19–558 mg/mL))"
C=C1CC[C@H](O)C/C1=C/C=C1\CCC[C@]2(C)[C@@H]([C@H](C)CCCC(C)C)CC[C@@H]12 [Vitamin D3],solubility,[16],104 mg/mL
same,solubility,[17],100 mg/mL
same,solubility,[20],212 mg/mL
same,solubility,[18],74.3 mg/mL
same,solubility,[21],113 mg/mL
same,solubility,[19],< 0.19 mg/mL
same,solubility,[22],< 0.19 mg/mL
CC1=C(/C=C/C(C)=C/C=C/C(C)=C/C=C/C=C(C)/C=C/C=C(C)/C=C/C2=C(C)C[C@@H](O)CC2(C)C)C(C)(C)C[C@H](O)C1 [Zeaxanthin],solubility,[8],< 0.19 mg/mL
same,solubility,[9],0.29 mg/mL
same,solubility,[11],< 0.19 mg/mL
same,solubility,[12],< 0.19 mg/mL
same,solubility,[13],< 0.19 mg/mL
same,solubility,[14],< 0.19 mg/mL
same,Solubility in CH2Cl2/MeOH (4:1),[15],0.49 mg/mL
same,Solubility in CH2Cl2/MeOH (4:1),"solvent CH2Cl2/MeOH (4:1, v/v); room temperature (21–23 °C); listed as zeaxanthin",< 100 mg/mL
c1cncc([C@@H]2CCCCN2)c1 [Anabasine],Solubility in CH2Cl2/MeOH (4:1),,70.0 mg/mL
same,solubility,[16],< 0.19 mg/mL
same,solubility,[17],10.3 mg/mL
same,solubility,[20],< 100 mg/mL
same,solubility,[18],97 mg/mL
same,solubility,[21],103 mg/mL
same,solubility,[19],109 mg/mL
same,solubility,[22],< 0.19 mg/mL
